Data: patent publication US10799508B2, “Methods for treating cancer using HSP90 inhibitors” (AI Therapeutics, Inc., priority 2017, dated 2020)

Assays:
[1] = system: IDO expression in HCC-38 cells; settings: HCC-38, MPC-3100 1000 nM or 5000 nM, 48 h, Western blot
Procedure: Effect of HSP90 inhibitor MPC-3100 on IFN-γ-induced IDO protein levels. Human HCC-38 cells treated with IFN-γ alone or co-treated with ruxolitinib (5000 nM) or MPC-3100 (100, 1000 or 5000 nM) for 48 h. Lysates were analyzed by Western blot to determine protein expression levels of IDO.

[2] = system: PD-L1 cell surface expression in SK-MEL-28 cells; test: Flow cytometry of IFN-γ-induced PD-L1 cell surface expression, SK-MEL-28; settings: SK-MEL-28, IFN-γ, MPC-3100 500 nM or 1000 nM, 48 h
Procedure: (§4) A) SK-MEL-28 and HCC-38 (both human lines) were treated with IFN-γ (50 ng/ml), MPC-3100 (500 nM or 1000 nM) or the combination for 48 h. B) EMT-6 and B16-F10 (both murine cell lines) were also treated with IFN-γ, MPC-3100 or the combination for 24 h. PD-L1 cell surface signals were analyzed by flow cytometry. Experiments were performed in duplicate and at least 2 independent times.
(§5) Two human cell lines were used (SK-MEL-28 and HCC-38 cells) and two murine cell lines were used (B16-F10, a melanoma cell line and EMT-6, a breast cancer cell line). All cells lines were treated with IFN-γ (50 ng/nl) and co-treated with MPC-3100 at the indicated concentrations for 48 h.

p-STAT1 in HCC-38 cells = test: Western blot of IFN-γ-induced pSTAT1; assay type: cell-based, human
Procedure: (§1) FIG. 5. HCC-38 cells treated with IFN-γ alone or co-treated with ruxolitinib (5000 nM) or MPC-3100 (10-5000 nM) were analyzed by Western blot to determine protein expression levels of HSP70 and pSTAT1. β-Actin was used as a loading control.
Since IFN-γ stimulates the expression of its target genes, such as PD-L1, which is mediated via JAK/STAT-1 signaling, the human HCC-38 cell line was used to probe the mechanism for IFN-γ-induced PD-L1 expression.

[3] = system: IFN-γ-induced PD-L1 expression in HCC-38 cells; test: Western blot of IFN-γ-induced PD-L1 protein expression; assay type: cell-based, human; settings: for IFN-γ-induced PD-L1 expression: IFN-γ 50 ng/ml, 48 h, Western blot
Procedure: FIG. 3. […] Human HCC-38 cells treated with IFN-γ alone or co-treated with ruxolitinib (5000 nM) or MPC-3100 (10-5000 nM) for 48 h were analyzed by Western blot analysis to determine protein expression levels of PD-L1. Ruxolitinib served as a positive control for inhibiting JAK2. β-Actin was used as a loading control.

[4] = system: PD-L1 cell surface expression in HCC-38 cells; test: Flow cytometry of IFN-γ-induced PD-L1 cell surface expression, HCC-38; settings: HCC-38, IFN-γ, MPC-3100 500 nM or 1000 nM, 48 h
Procedure: as §4, §5

[5] = system: PD-L1 cell surface expression in B16-F10 cells; test: Flow cytometry of IFN-γ-induced PD-L1 cell surface expression, B16-F10; settings: B16-F10 (murine), IFN-γ plus MPC-3100, flow cytometry
Procedure: as §4, §5

[6] = system: HSP70 expression in HCC-38 cells; settings: HCC-38 treated with MPC-3100, Western blot
Procedure: as §1

[7] = system: PD-L1 cell surface expression in EMT-6 cells; test: Flow cytometry of IFN-γ-induced PD-L1 cell surface expression, EMT-6; settings: EMT-6 (murine), IFN-γ plus MPC-3100, flow cytometry
Procedure: as §4, §5

pAkt in U87 cells = settings: U87, MPC-3100 500 or 1000 nM, 24 h, Western blot
Procedure: (§2) FIG. 7. […] U87 cells were treated with MPC-3100 (500 and 1000 nM) for 24 h and analyzed by Western blotting with the indicated antibodies. β-Actin was used as a loading control.
(§3) Lysates were then prepared and queried for protein expression using western blot analysis.

[8] = system: PD-L1 expression in U87 cells
Procedure: as §2, §3

[9] = system: IFN-γ-induced PD-L1 expression in SK-MEL-28 cells; test: 10-point dose response validation of IFN-γ-induced PD-L1 signal; assay type: cell-based, human; settings: SK-MEL-28, IFN-γ 50 ng/ml, 48 h, FIG. 2A-E
Procedure: FIG. 1A-D. Validation dose response curves of HSP90 inhibitors tested in the original screen. A) CNF2024; B) PF04928473; C) tanespimycin; D) HSP-990. SK-MEL-28 cells treated with IFN-γ and with the indicated HSP90 inhibitor at different concentrations. Cells were assayed for cell viability (square, % viability on left axis) and PD-L1 expression (circle, Z-score right axis) at 48 h after treatment of IFN-γ and/or HSP90 inhibitors. Quadruplicate wells were used for determination of cell viability and PD-L1 expression. Average values were plotted. […] Lysates were probed with anti PD-L1 antibody.
FIG. 2A-E. Dose response curves of 5 additional HSP90 inhibitors. A) STA-9090, B) CUDC-305, C) MPC-3100, D) XL-888 and E) TAS-116. SK-MEL-28 cells treated with IFN-γ (50 ng/ml) and with the indicated HSP90 inhibitor at different concentrations. Cells were assayed for cell viability (square, % viability on left axis) and PD-L1 expression (circle, Z-score right axis) at 48 h after treatment of IFN-γ and/or HSP inhibitors. Quadruplicate wells were used for determination of cell viability and PD-L1 expression. Average values were plotted.
After assessment for viability, plates were then prepared for immunostaining. Briefly, 16% paraformaldehyde (Electron Microscopy Sciences) was added to each well to a final concentration of 4%, for 10 minutes at room temperature. Following this time, the fix was aspirated and cells were washed 3 times with PBS. Cells were blocked using blocking solution (1% bovine serum albumin in PBS) for 30 minutes. After this time, the blocking reagent was aspirated and immunostaining reagent added. The immunostaining reagent consisted of a biotin conjugated-PD-L1 antibody (eBioscience) diluted in blocking buffer. Plates were sealed and kept at 4 C overnight. The following day, plates were washed 3 times with PBS followed by addition of a streptavidin-luciferase fusion protein (Invivogen) diluted in blocking buffer, for 1 h at room temperature. After this step, the plates were washed 3 times with PBS. After the final wash, PBS was aspirated and 30 uL of QUANTI-Luc™ (Invivogen) was added per well. Plates were immediately read on a plate reader (Victor 3V plate reader, 0.1s) and luciferase activity measured.
The raw PD-L1 intensity (the luciferase readout) corresponding to drug screen plates was normalized to blank plates containing only IFN-γ-treated wells, and the resulting ratio was used for the calculation of Z-scores.
These 4 HSP90 inhibitors were validated using the same experimental protocol employed above (using the SK-MEL-28 cells +/−IFN-γ in 384 well plates), with the only exception to the original assay design was that each drug was now tested in a 10-point dose response assay where the concentration of drug tested was 9.8-5000 nM (2 fold serial dilution). Cells were seeded and treated in quadruplicate. Viability was assessed after 48 h of treatment of four HSP 90 inhibitors and prior to harvesting the cells for testing PD-L1 signal, as described above.

[10] = read-out: maximum concentration (Cmax, geometric mean) in plasma; patients dosed at the recommended phase 2 dose; cited from earlier work

In the case of `C[C@H](O)C(=O)N1CCC(CCn2c(Sc3cc4c(cc3Br)OCO4)nc3c(N)ncnc32)CC1` [MPC-3100], the “IFN-γ-induced IDO expression” value [1] is reported as “inhibited”, the “IFN-γ-induced cell surface expression of PD-L1” value [2] is reported as “effectively inhibited” and the “concentrations blocking p-STAT1, fold lower than the Cmax at the recommended Phase 2 dose” value (p-STAT1 in HCC-38 cells; HCC-38) is reported as “at least 10 fold”. For the same compound, the “IFN-γ-induced p-STAT1” value (p-STAT1 in HCC-38 cells; HCC-38, MPC-3100 10-5000 nM, Western blot) was “blocks”, the “IFN-γ-induced PD-L1 expression” value ([3]; HCC-38, MPC-3100 100 nM) was “reduced” and the “IFN-γ-induced PD-L1 expression” value ([3]; HCC-38, MPC-3100 1000 nM) was “completely abrogated”. For the same compound, the “concentrations eliciting immuno-modulatory activity toward PD-L1, fold lower than Cmax at RP2D” value ([3]; compared with plasma Cmax ~13 μM) was “at least 10 fold”, the “IFN-γ-induced cell surface expression of PD-L1” value [4] was “effectively inhibited” and the “IFN-γ-induced cell surface expression of PD-L1” value [5] was “effectively inhibited”. For the same compound, the HSP70 expression [6] was “increase”, the “IFN-γ-induced cell surface expression of PD-L1” value [7] was “effectively inhibited” and the pAkt (pAkt in U87 cells) was “reduction”. For the same compound, the “concentrations inhibiting PD-L1 expression, fold lower than the therapeutic dose” value ([8]; U87) was about 10 fold, the “constitutive PD-L1 expression” value ([8]; U87, MPC-3100 500 or 1000 nM, 24 h, Western blot) was “attenuation” and the “concentration required to inhibit IFN-γ-induced PD-L1 expression compared with concentration required to affect cell proliferation” value [9] was “far lower”. For the same compound, the Cmax [10] was about 13 µM.
